This is an account of results in patent US20240228489A1, “POSITIVE ALLOSTERIC MODULATORS OF THE MUSCARINIC ACETYLCHOLINE RECEPTOR M1” (Vanderbilt University, priority 2021, published 2024).

Test [1] deals with T1, human mAChR M1 (Homo sapiens, UniProt P11229).
T1 sequence (P11229 1-460): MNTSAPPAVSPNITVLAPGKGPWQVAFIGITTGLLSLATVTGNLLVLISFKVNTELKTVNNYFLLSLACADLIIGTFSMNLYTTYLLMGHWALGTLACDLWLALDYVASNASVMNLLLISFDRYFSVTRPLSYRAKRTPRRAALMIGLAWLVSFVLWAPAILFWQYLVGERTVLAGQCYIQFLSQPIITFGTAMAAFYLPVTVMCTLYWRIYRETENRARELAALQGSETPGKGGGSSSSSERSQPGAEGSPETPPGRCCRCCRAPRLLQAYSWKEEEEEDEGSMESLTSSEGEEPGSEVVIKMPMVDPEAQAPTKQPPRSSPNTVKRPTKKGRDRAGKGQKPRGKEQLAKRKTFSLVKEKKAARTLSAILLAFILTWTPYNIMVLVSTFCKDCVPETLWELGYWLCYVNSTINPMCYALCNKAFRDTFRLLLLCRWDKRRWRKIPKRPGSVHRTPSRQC
Description: mAChR M1 cell-based functional assay (calcium mobilization), PAM mode: increase in the EC20 acetylcholine response. The method, boiled down:
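PAM readout is the concentration-dependent rise in the EC20 acetylcholine calcium signal, fitted to a four-parameter logistic (EC50, Emax). Compounds were preincubated from 4 s before ACh at 144 s (EC20) and 230 s (EC80). hM1-expressing CHO-K1 cells loaded with Fluo-4, FDSS ratio read.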

In test [2] the target is T1, human mAChR M1. The test is described as follows: mAChR M1 cell-based functional assay (calcium mobilization), agonist mode: compound alone, Emax relative to acetylcholine maximum. Conditions: for Agonist Activity Human M1 EC50 / EC50: human mAChR M1; for Emax: relative to the maximum for acetylcholine; call rule not given here. The method, boiled down:
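Agonist activity is the concentration-dependent rise in intracellular calcium (Fluo-4, 1 Hz read) after compound addition, measured before any acetylcholine was added, in stable hM1 CHO-K1 cells. Curves were 11-point, 1:3 dilutions fitted by four-parameter logistic. Emax is given as a fraction of maximal acetylcholine response.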

For orientation: EC50 means the concentration giving half of the maximal effect. By Emax is commonly meant the size of the effect at its maximum, as opposed to the concentration needed. Turning to `[2H]C1([2H])c2ncccc2C(=O)N1Cc1c(F)cc(-c2ccc(OC)c3nn(C)cc23)cc1Cl` [Compound 163, 6-(2-chloro-6-fluoro-4-(7-methoxy-2-methyl-2H-indazol-4-yl)benzyl)-6,7-dihydro-5H-pyrrolo[3,4-b]pyridin-5-one-7,7-d2], at human mAChR M1 [1], the half-maximal effective concentration (EC50) amounted to 239 nM and the Emax turned out to be 81%. At human mAChR M1 [2], the “Agonist Activity Human M1 EC50” value is “Inactive” and the maximal effect (Emax) stood at 3%.

As to `[2H]C1([2H])c2ncccc2C(=O)N1Cc1c(F)cc(-c2cccc3nn(C)cc23)cc1OCC(C)C` [Compound 210, 6-(2-fluoro-6-isobutoxy-4-(2-methyl-2H-indazol-4-yl)benzyl)-6,7-dihydro-5H-pyrrolo[3,4-b]pyridin-5-one-7,7-d2], on human mAChR M1 [1], the EC50 was 865 nM and the Emax was found to be 83%. Besides, on human mAChR M1 [2], the “Agonist Activity Human M1 EC50” value is on record as “Inactive” and the Emax came out at 14%.

Turning to `[2H]C1([2H])c2ncccc2C(=O)N1Cc1c(F)cc(-c2cccc3c2cnn3C([2H])([2H])[2H])cc1F` [Compound 67, 6-(2,6-difluoro-4-(1-(methyl-d3)-1H-indazol-4-yl)benzyl)-6,7-dihydro-5H-pyrrolo[3,4-b]pyridin-5-one-7,7-d2], on human mAChR M1 [1], the 50% effective concentration (EC50) amounted to 823 nM and the Emax stood at 71%. Moreover, at human mAChR M1 [2], the “Agonist Activity Human M1 EC50” value was “Inactive” and the Emax was determined as 2%.

Regarding `[2H]C1([2H])c2ncccc2C(=O)N1Cc1c(F)cc(-c2ccc(O[C@@H]3CCOC3)c3nn(C)cc23)cc1F` [Compound 137, (R)-6-(2,6-difluoro-4-(2-methyl-7-((tetrahydrofuran-3-yl)oxy)-2H-indazol-4-yl)benzyl)-6,7-dihydro-5H-pyrrolo[3,4-b]pyridin-5-one-7,7-d2], at human mAChR M1 [1], the EC50 was determined as 256 nM and the Emax is 74%. For the same compound, at human mAChR M1 [2], the EC50 worked out at 7920 nM and the Emax was 53%.

Turning to `[2H]C1([2H])c2ncccc2C(=O)N1Cc1ccc(-c2cccc3nn(C)cc23)cc1C(C)C` [Compound 233, 6-(2-isopropyl-4-(2-methyl-2H-indazol-4-yl)benzyl)-6,7-dihydro-5H-pyrrolo[3,4-b]pyridin-5-one-7,7-d2], on human mAChR M1 [1], the EC50 was at least 10000 nM and the Emax was determined as 43%. At human mAChR M1 [2], the “Agonist Activity Human M1 EC50” value is recorded as “Inactive” and the maximum response (Emax) is 1%.

Take `[2H]C1([2H])c2ncccc2C(=O)N1Cc1c(F)cc(-c2cccc3nn(C(C)C)cc23)cc1F` [Compound 43, 6-(2,6-difluoro-4-(2-isopropyl-2H-indazol-4-yl)benzyl)-6,7-dihydro-5H-pyrrolo[3,4-b]pyridin-5-one-7,7-d2]: on human mAChR M1 [1], the 50% effective concentration (EC50) worked out at 1170 nM and the Emax is 86%. On human mAChR M1 [2], the concentration for a half-maximal effect (EC50) was over 10000 nM and the maximal response (Emax) is 2%.

For `[2H]C1([2H])c2ncccc2C(=O)N1Cc1c(F)cc(-c2ccc(O)c3nn(C)cc23)cc1F` [Compound 130, 6-(2,6-Difluoro-4-(7-hydroxy-2-methyl-2H-indazol-4-yl)benzyl)-6,7-dihydro-5H-pyrrolo[3,4-b]pyridin-5-one-7,7-d2], at human mAChR M1 [1], the EC50 stood at 123 nM and the maximal effect (Emax) worked out at 82%. Further, on human mAChR M1 [2], the concentration giving a half-maximal response (EC50) is 4560 nM and the Emax amounted to 52%.

Take `[2H]C1([2H])c2ncccc2C(=O)N1Cc1ccc(-c2cccc3nn(C([2H])([2H])[2H])cc23)cc1C` [Compound 46, 6-(2-methyl-4-(2-(methyl-d^3)-2H-indazol-4-yl)benzyl)-6,7-dihydro-5H-pyrrolo[3,4-b]pyridin-5-one-7,7-d2]: on human mAChR M1 [1], the EC50 was found to be 681 nM and the Emax was 77%. For the same compound, at human mAChR M1 [2], the “Agonist Activity Human M1 EC50” value is “Inactive” and the maximum response (Emax) amounted to 9%.

For `[2H]C1([2H])c2ncccc2C(=O)N1Cc1c(F)cc(-c2cccn3nc(C)cc23)cc1F` [Compound 235, 6-(2,6-Difluoro-4-(2-methylpyrazolo[1,5-a]pyridin-4-yl)benzyl)-6,7-dihydro-5H-pyrrolo[3,4-b]pyridin-5-one-7,7-d2], on human mAChR M1 [1], the EC50 turned out to be 744 nM and the maximum response (Emax) turned out to be 73%. In addition, at human mAChR M1 [2], the EC50 is over 10000 nM and the Emax was 23%.

As for `[2H]C1([2H])c2ncccc2C(=O)N1Cc1c(Cl)cc(-c2cccc3nn(C([2H])([2H])[2H])cc23)cc1Cl` [Compound 228, 6-(2,6-dichloro-4-(2-(methyl--d3)-2H-indazol-4-yl)benzyl)-6,7-dihydro-5H-pyrrolo[3,4-b]pyridin-5-one-7,7-d2], on human mAChR M1 [1], the EC50 stood at 380 nM and the Emax stood at 60%. Also, at human mAChR M1 [2], the “Agonist Activity Human M1 EC50” value is recorded as “Inactive” and the Emax came to 1%.

For `[2H]C1([2H])c2ncccc2C(=O)N1Cc1c(F)cc(-c2ccc(OCC3CC3)c3nn(C)cc23)cc1F` [Compound 138, 6-(4-(7-(cyclopropylmethoxy)-2-methyl-2H-indazol-4-yl)-2,6-difluorobenzyl)-6,7-dihydro-5H-pyrrolo[3,4-b]pyridin-5-one-7,7-d2], on human mAChR M1 [1], the concentration giving a half-maximal response (EC50) worked out at 837 nM and the Emax came out at 75%. Further, at human mAChR M1 [2], the EC50 was at least 10000 nM and the Emax is 11%.

Consider `[2H]C1([2H])c2ncccc2C(=O)N1Cc1ccc(-c2cccc3ccnn23)cc1` [Compound 241, 6-(4-(pyrazolo[1,5-a]pyridin-7-yl)benzyl)-6,7-dihydro-5H-pyrrolo[3,4-b]pyridin-5-one-7,7-d2], for which, at human mAChR M1 [1], the EC50 was over 10000 nM and the maximal response (Emax) turned out to be 41%. For the same compound, on human mAChR M1 [2], the “Agonist Activity Human M1 EC50” value is given as “Inactive” and the Emax is 3%.

With `[2H]C1([2H])c2ncccc2C(=O)N1Cc1ccc(-c2cc3cn(C)nc3cc2C)cc1` [Compound 16, 6-(4-(2,6-dimethyl-2H-indazol-5-yl)benzyl)-6,7-dihydro-5H-pyrrolo[3,4-b]pyridin-5-one-7,7-d2], on human mAChR M1 [1], the EC50 was over 10000 nM and the maximal response (Emax) came to 55%. Besides, at human mAChR M1 [2], the “Agonist Activity Human M1 EC50” value is “Inactive” and the Emax came out at 3%.

Take `[2H]C1([2H])c2ncccc2C(=O)N1Cc1c(C)cc(-c2ccnc3nn(C)cc23)cc1F` [Compound 201, 6-(2-fluoro-6-methyl-4-(2-methyl-2H-pyrazolo[3,4-b]pyridin-4-yl)benzyl)-6,7-dihydro-5H-pyrrolo[3,4-b]pyridin-5-one-7,7-d2]: at human mAChR M1 [1], the EC50 amounted to 332 nM and the Emax is 83%. Besides, at human mAChR M1 [2], the 50% effective concentration (EC50) is 5200 nM and the Emax was 43%.

As for `[2H]C1([2H])c2ncccc2C(=O)N1Cc1c(F)cc(-c2cnc(OC)c3nn(C)cc23)cc1F` [Compound 121, 6-(2,6-difluoro-4-(7-methoxy-2-methyl-2H-pyrazolo[3,4-c]pyridin-4-yl)benzyl)-6,7-dihydro-5H-pyrrolo[3,4-b]pyridin-5-one-7,7-d2], at human mAChR M1 [1], the 50% effective concentration (EC50) was found to be 2920 nM and the Emax is 55%. Moreover, at human mAChR M1 [2], the “Agonist Activity Human M1 EC50” value is given as “Inactive” and the maximum response (Emax) turned out to be 3%.

Take `[2H]C1([2H])c2ncccc2C(=O)N1Cc1c(F)cc(-c2ccc(OC)c3nn(C([2H])([2H])[2H])cc23)cc1C1CC1` [Compound 209, 6-(2-cyclopropyl-6-fluoro-4-(7-methoxy-2-(methyl-d3)-2H-indazol-4-yl)benzyl)-6,7-dihydro-5H-pyrrolo[3,4-b]pyridin-5-one-7,7-d2]: at human mAChR M1 [1], the concentration for a half-maximal effect (EC50) stood at 769 nM and the Emax was determined as 83%. Also, at human mAChR M1 [2], the EC50 is 2580 nM and the Emax worked out at 62%.

`[2H]C1([2H])c2ncccc2C(=O)N1Cc1c(F)cc(-c2ccc(OC(F)F)c3nn(C)cc23)cc1F` [Compound 102, 6-(4-(7-(difluoromethoxy)-2-methyl-2H-indazol-4-yl)-2,6-difluorobenzyl)-6,7-dihydro-5H-pyrrolo[3,4-b]pyridin-5-one-7,7-d2]: at human mAChR M1 [1], the concentration giving a half-maximal response (EC50) is 469 nM and the maximum response (Emax) is 77%. In addition, at human mAChR M1 [2], the “Agonist Activity Human M1 EC50” value is listed as “Inactive” and the Emax was found to be 9%.

As for `[2H]C1([2H])c2ncccc2C(=O)N1Cc1c(F)cc(-c2ccc(OCCOC3CC3)c3nn(C)cc23)cc1F` [Compound 150, 6-(4-(7-(2-cyclopropoxyethoxy)-2-methyl-2H-indazol-4-yl)-2,6-difluorobenzyl)-6,7-dihydro-5H-pyrrolo[3,4-b]pyridin-5-one-7,7-d2], the EC50 was 777 nM on human mAChR M1 [1] and at least 10000 nM on human mAChR M1 [2]. Also, the maximal effect (Emax) at human mAChR M1 [1] turned out to be 80%; at human mAChR M1 [2], 22%.

In the case of `[2H]C1([2H])c2ncccc2C(=O)N1Cc1c(F)cc(-c2cccc3c2cnn3CC)cc1F` [Compound 65, 6-(4-(1-ethyl-1H-indazol-4-yl)-2,6-difluorobenzyl)-6,7-dihydro-5H-pyrrolo[3,4-b]pyridin-5-one-7,7-d2], on human mAChR M1 [1], the concentration for a half-maximal effect (EC50) was found to be 1300 nM and the maximal effect (Emax) stood at 73%. For the same compound, at human mAChR M1 [2], the EC50 was over 10000 nM and the Emax came out at 2%.

In the case of `[2H]C1([2H])c2ncccc2C(=O)N1Cc1ccc(-c2cc(C)c3nn(C)cc3c2)cc1F` [Compound 25, 6-(4-(2,7-dimethyl-2H-indazol-5-yl)-2-fluorobenzyl)-6,7-dihydro-5H-pyrrolo[3,4-b]pyridin-5-one-7,7-d2], on human mAChR M1 [1], the half-maximal effective concentration (EC50) is 1070 nM and the Emax was 76%. At human mAChR M1 [2], the “Agonist Activity Human M1 EC50” value is reported as “Inactive” and the Emax was determined as 4%.
